Assay results taken from patent publication US6737383B1, “Herbicidal oxadiazolidines” (priority 1999, dated 2004).

Assays:
sugar beet = test: Test B pre/postemergence sugar beet; format: in vivo, Beta vulgaris
Outline: (§1)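 Herbicidal effect was estimated by eye on a ten-point control scale after plants spent twelve to sixteen days in a greenhouse following soil or foliar treatment. Foliar sprays targeted plants at one to four leaves; all doses were formulated in a non-phytotoxic solvent with surfactant.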

soybean = test: Test B pre/postemergence soybean; format: in vivo, Glycine max
Outline: as §1

rape = test: Test B pre/postemergence rape; format: in vivo, Brassica napus
Outline: as §1

morningglory = test: Test B pre/postemergence morningglory; format: in vivo, Ipomoea hederacea
Outline: as §1

velvetleaf = test: Test B pre/postemergence velvetleaf; format: in vivo, Abutilon theophrasti
Outline: as §1

wild oat = test: Test B pre/postemergence wild oat; format: in vivo, Avena fatua
Outline: as §1

blackgrass = test: Test B pre/postemergence blackgrass; format: in vivo, Alopecurus myosuroides
Outline: as §1

rice = test: Test B flood test rice; format: in vivo, Oryza sativa; conditions: for Plant response rating, Rice (0 to 10 scale, 0 is no effect, 10 is complete control): Rate 62 g/ha, Pre-emergence
Outline: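 Flood test on plants grown to the 2-leaf stage; treated plants kept in greenhouse twelve to sixteen days, then visually rated against controls on a 0 (no effect) to 10 (complete control) scale.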

corn = test: Test B pre/postemergence corn; format: in vivo, Zea mays
Outline: as §1

surinam grass = test: Test B pre/postemergence surinam grass; format: in vivo, Brachiaria decumbens
Outline: as §1

smallflower flatsedge = test: Test B flood test smallflower flatsedge; format: in vivo, Cyperus difformis; conditions: for Plant response rating, S. Flatsedge (0 to 10 scale, 0 is no effect, 10 is complete control): Rate 62 g/ha, Pre-emergence
Procedure: (§2) At the same time, these crop and weed species were also treated with postemergence applications of test chemicals formulated in the same manner. Plants ranged in height from 2 to 18 cm (1- to 4-leaf stage) for postemergence treatments. Plant species in the flood test consisted of rice (Oryza sativa), smallflower flatsedge (Cyperus difformis), duck salad (Heteranthera limosa) and bamyardgrass (Echinochloa crus-galli) grown to the 2-leaf stage for testing. Treated plants and controls were maintained in a greenhouse for twelve to sixteen days, after which all species were compared to controls and visually evaluated. Plant response ratings, summarized in Table B, are based on a scale of 0 to 10 where 0 is no effect and 10 is complete control. A dash (−) response means no test result.

giant foxtail = test: Test B pre/postemergence giant foxtail; format: in vivo, Setaria faberii
Outline: as §1

cocklebur = test: Test B pre/postemergence cocklebur; format: in vivo, Xanthium strumarium
Outline: as §1

purple nutsedge = test: Test B pre/postemergence purple nutsedge; format: in vivo, Cyperus rotundus
Outline: as §1

pigweed = test: Test B pre/postemergence pigweed; format: in vivo, Amaranthus retroflexus
Outline: as §1

bamyardgrass = test: Test B flood test barnyardgrass; format: in vivo, Echinochloa crus-galli; conditions: for Plant response rating, Barnyardgrass (0 to 10 scale, 0 is no effect, 10 is complete control): Rate 62 g/ha, Pre-emergence
Procedure: as §2

duck salad = test: Test B flood test duck salad; format: in vivo, Heteranthera limosa; conditions: for Plant response rating, Ducksalad (0 to 10 scale, 0 is no effect, 10 is complete control): Rate 62 g/ha, Pre-emergence
Procedure: as §2

wheat = test: Test B pre/postemergence wheat; format: in vivo, Triticum aestivum
Outline: as §1

crabgrass = test: Test B pre/postemergence crabgrass; format: in vivo, Digitaria sanguinalis
Outline: as §1

[1] = Postemergence, Rate 125 g/ha, scale 0 to 10, 0 is no effect, 10 is complete control
[2] = Postemergence, Rate 500 g/ha, scale 0 to 10, 0 is no effect, 10 is complete control
[3] = Preemergence, Rate 62 g/ha, scale of 0 to 10 where 0 is no effect and 10 is complete control
[4] = Preemergence, Rate 125 g/ha, scale 0 to 10, 0 is no effect, 10 is complete control
[5] = Preemergence, Rate 500 g/ha, scale of 0 to 10 where 0 is no effect and 10 is complete control
[6] = Rate 62 g/ha, Postemergence, scale 0 to 10 (0 no effect, 10 complete control)
[7] = Postemergence, Rate 250 g/ha, scale 0 to 10
[8] = Preemergence, Rate 250 g/ha, scale 0 to 10, 0 is no effect, 10 is complete control
[9] = flood test species, visual evaluation after twelve to sixteen days
[10] = Rate 125 g/ha, under heading Pre-emergence, flood test species, visual evaluation after twelve to sixteen days
[11] = Rate 250 g/ha, Pre-emergence (flood test species), scale 0 to 10, 0 is no effect, 10 is complete control
[12] = Rate 500 g/ha, Pre-emergence section of Table B, 0 to 10 scale (0 no effect, 10 complete control)
[13] = Rate 125 g/ha, Pre-emergence section (flood test species), scale 0 to 10, 0 no effect, 10 complete control

CC(C)N(C(=O)n1oc(=O)n(CC2=NCCO2)c1=O)c1ccccc1 [Compound 495]
7: Plant response rating, Morningglory (morningglory; [2])
1: Morningglory plant response rating (morningglory; [1]) | Morningglory plant response rating (morningglory; [6])
0: Sugarbeets plant response rating (sugar beet; [1]) | Plant response rating, Sugarbeets (sugar beet; [2]) | Plant response rating, Sugarbeets (sugar beet; [3]) | Sugarbeets plant response rating (sugar beet; [4]) | Sugarbeets plant response rating (sugar beet; [5]) | Sugarbeets plant response rating (sugar beet; [6]) | Soybean plant response rating (soybean; [1]) | Plant response rating, Soybean (soybean; [2]) | Plant response rating, Soybean (soybean; [3]) | Soybean plant response rating (soybean; [4]) | Soybean plant response rating (soybean; [5]) | Soybean plant response rating (soybean; [6]) | Rape plant response rating (rape; [1]) | Plant response rating, Rape (rape; [2]) | Plant response rating, Rape (rape; [3]) | Rape plant response rating (rape; [4]) | Rape plant response rating (rape; [5]) | Rape plant response rating (rape; [6]) | Plant response rating, Morningglory (morningglory; [3]) | Morningglory plant response rating (morningglory; [4]) | Morningglory plant response rating (morningglory; [5]) | Velvetleaf plant response rating (velvetleaf; [1]) | Plant response rating, Velvetleaf (velvetleaf; [2]) | Plant response rating, Velvetleaf (velvetleaf; [3]) | Velvetleaf plant response rating (velvetleaf; [4]) | Velvetleaf plant response rating (velvetleaf; [5]) | Velvetleaf plant response rating (velvetleaf; [6]) | Wild oats plant response rating (wild oat; [1]) | Plant response rating, Wild oats (wild oat; [2]) | Plant response rating, Wild oats (wild oat; [3]) | Wild oats plant response rating (wild oat; [4]) | Wild oats plant response rating (wild oat; [5]) | Wild oats plant response rating (wild oat; [6]) | Blackgrass plant response rating (blackgrass; [1]) | Blackgrass plant response rating (blackgrass; [7]) | Plant response rating, Blackgrass (blackgrass; [2]) | Plant response rating, Blackgrass (blackgrass; [3]) | Blackgrass plant response rating (blackgrass; [4]) | Blackgrass plant response rating (blackgrass; [8]) | Blackgrass plant response rating (blackgrass; [5]) | Blackgrass plant response rating (blackgrass; [6]) | Plant response rating, Rice (0 to 10 scale, 0 is no effect, 10 is complete control) (rice; [9]) | Rice plant response rating (0 to 10 scale, 0 is no effect, 10 is complete control) (rice; [10]) | Rice plant response rating (rice; [11]) | Rice plant response rating (rice; [12]) | Corn plant response rating (corn; [1]) | Corn plant response rating (corn; [7]) | Plant response rating, Corn (corn; [2]) | Plant response rating, Corn (corn; [3]) | Corn plant response rating (corn; [4]) | Corn plant response rating (corn; [5]) | Corn plant response rating (corn; [6]) | B. signalgrass plant response rating (surinam grass; [1]) | B. signalgrass plant response rating (surinam grass; Postemergence, Rate 250 g/ha, scale 0 to 10, 0 no effect, 10 complete control) | Plant response rating, B. signalgrass (surinam grass; [2]) | Plant response rating, B. signalgrass (surinam grass; [3]) | B. signalgrass plant response rating (surinam grass; [4]) | B. signalgrass plant response rating (surinam grass; [8]) | B. signalgrass plant response rating (surinam grass; Preemergence, Rate 500 g/ha, scale 0 to 10, 0 is no effect, 10 is complete control) | B. signalgrass plant response rating (surinam grass; [6]) | Plant response rating, S. Flatsedge (0 to 10 scale, 0 is no effect, 10 is complete control) (smallflower flatsedge; [9]) | S. Flatsedge plant response rating (0 to 10 scale, 0 is no effect, 10 is complete control) (smallflower flatsedge; [10]) | S. Flatsedge plant response rating (smallflower flatsedge; [11]) | S. Flatsedge plant response rating (smallflower flatsedge; [12]) | Giant foxtail plant response rating (giant foxtail; [1]) | Plant response rating, Giant foxtail (giant foxtail; [2]) | Plant response rating, Giant foxtail (giant foxtail; [3]) | Giant foxtail plant response rating (giant foxtail; [4]) | Giant foxtail plant response rating (giant foxtail; [5]) | Giant foxtail plant response rating (giant foxtail; [6]) | Cocklebur plant response rating (cocklebur; [1]) | Cocklebur plant response rating (cocklebur; [7]) | Plant response rating, Cocklebur (cocklebur; [2]) | Plant response rating, Cocklebur (cocklebur; [3]) | Cocklebur plant response rating (cocklebur; [4]) | Cocklebur plant response rating (cocklebur; [8]) | Cocklebur plant response rating (cocklebur; [5]) | Cocklebur plant response rating (cocklebur; [6]) | Nutsedge plant response rating (purple nutsedge; [1]) | Plant response rating, Nutsedge (purple nutsedge; [2]) | Plant response rating, Nutsedge (purple nutsedge; [3]) | Nutsedge plant response rating (purple nutsedge; [4]) | Nutsedge plant response rating (purple nutsedge; [5]) | Nutsedge plant response rating (purple nutsedge; [6]) | Redroot pigweed plant response rating (pigweed; [1]) | Plant response rating, Redroot pigweed (pigweed; [2]) | Plant response rating, Redroot pigweed (pigweed; [3]) | Redroot pigweed plant response rating (pigweed; [4]) | Redroot pigweed plant response rating (pigweed; [5]) | Redroot pigweed plant response rating (pigweed; [6]) | Plant response rating, Barnyardgrass (0 to 10 scale, 0 is no effect, 10 is complete control) (bamyardgrass; [9]) | Barnyardgrass plant response rating (0 to 10 scale, 0 is no effect, 10 is complete control) (bamyardgrass; [10]) | Barnyardgrass plant response rating (bamyardgrass; [11]) | Barnyardgrass plant response rating (bamyardgrass; [12]) | Plant response rating, Ducksalad (0 to 10 scale, 0 is no effect, 10 is complete control) (duck salad; [9]) | Ducksalad plant response rating (0 to 10 scale, 0 is no effect, 10 is complete control) (duck salad; [10]) | Ducksalad plant response rating (duck salad; [11]) | Ducksalad plant response rating (duck salad; [12]) | Wheat plant response rating (wheat; [1]) | Plant response rating, Wheat (wheat; [2]) | Plant response rating, Wheat (wheat; [3]) | Wheat plant response rating (wheat; [4]) | Wheat plant response rating (wheat; [5]) | Wheat plant response rating (wheat; [6]) | Crabgrass plant response rating (crabgrass; [1]) | Crabgrass plant response rating (crabgrass; [7]) | Plant response rating, Crabgrass (crabgrass; [2]) | Plant response rating, Crabgrass (crabgrass; [3]) | Crabgrass plant response rating (crabgrass; [4]) | Crabgrass plant response rating (crabgrass; [5]) | Crabgrass plant response rating (crabgrass; [6])

CC(C)N(C(=O)n1oc(=O)n(C(C)C(=O)N2CCOCC2)c1=O)c1ccc(F)cc1 (stereo not shown) [Compound 705]
2: Rice plant response rating (rice; [11]) | Rice plant response rating (rice; [12]) | Barnyardgrass plant response rating (bamyardgrass; [11]) | Barnyardgrass plant response rating (bamyardgrass; [12])
0: Plant response rating, Rice (0 to 10 scale, 0 is no effect, 10 is complete control) (rice; [9]) | Plant response rating, S. Flatsedge (0 to 10 scale, 0 is no effect, 10 is complete control) (smallflower flatsedge; [9]) | S. Flatsedge plant response rating (smallflower flatsedge; [13]) | S. Flatsedge plant response rating (smallflower flatsedge; [11]) | S. Flatsedge plant response rating (smallflower flatsedge; [12]) | Plant response rating, Barnyardgrass (0 to 10 scale, 0 is no effect, 10 is complete control) (bamyardgrass; [9]) | Barnyardgrass plant response rating (bamyardgrass; [13]) | Plant response rating, Ducksalad (0 to 10 scale, 0 is no effect, 10 is complete control) (duck salad; [9]) | Ducksalad plant response rating (duck salad; [13]) | Ducksalad plant response rating (duck salad; [11]) | Ducksalad plant response rating (duck salad; [12])
1: Rice plant response rating (rice; [13])
